Reference: ChEMBL document CHEMBL5532691, “Anti-cancer activity and mechanism of flurbiprofen organoselenium compound RY-1-92 in non-small cell lung cancer” (RSC Med Chem, 2024)
Calls of active or inactive are those of the source. The rule behind the calls is not given here.

Legend:
A549 [1] = assay: Induction of apoptosis in human A549 cells assessed as late apoptotic cells at 10 uM measured after 48 hrs by annexin V-FITC/PI staining based flow cytometry analysis (reference value: 15.12%); assay type: functional
A549 [2] = assay: Inhibition of colony formation in human A549 cells at 30 uM measured after 48 hrs by giemsa staining based analysis relative to control; assay type: functional
A549 [3] = assay: Downregulation of ERK phosphorylation expression in human A549 cells at 10 to 30 uM by Western blot analysis; assay type: functional, cell-based; conditions: dose 10-30 µM
Lewis lung carcinoma [4] = assay: Antitumor activity against mouse Lewis lung carcinoma cell line xenografted in C57BL/6 mouse model assessed as increase in Bax/Bcl2 ratio at 10 to 20 mg/kg by Western blot analysis; assay type: functional, organism-based; conditions: dose 10-20 mg/kg
A549 [5] = assay: Upregulation of Bax protein expression in human A549 cells at 10 to 30 uM by Western blot analysis; assay type: functional, cell-based; conditions: dose 10-30 µM
A549 [6] = assay: Downregulation of CDK1 protein expression in human A549 cells at 10 to 30 uM by Western blot analysis; assay type: functional, cell-based; conditions: dose 10-30 µM
NCI-H460 [7] = assay: Downregulation of P38 phosphorylation expression in human NCI-H460 cells at 10 to 30 uM by Western blot analysis; assay type: functional, cell-based; conditions: dose 10-30 µM
Lewis lung carcinoma [8] = assay: Antitumor activity against mouse Lewis lung carcinoma cell line xenografted in C57BL/6 mouse model assessed as downregulation of CDK1 expression at 10 to 20 mg/kg by Western blot analysis; assay type: functional, organism-based; conditions: dose 10-20 mg/kg
NCI-H460 [9] = assay: Downregulation of AKT phosphorylation expression in human NCI-H460 cells at 10 to 30 uM by Western blot analysis; assay type: functional, cell-based; conditions: dose 10-30 µM
A549 [10] = assay: Induction of apoptosis in human A549 cells assessed as viable cells at 10 uM measured after 48 hrs by annexin V-FITC/PI staining based flow cytometry analysis (reference value: 80.26%); assay type: functional; conditions: read-out: Activity
NCI-H460 [11] = assay: Induction of apoptosis in human NCI-H460 cells assessed as viable cells at 10 uM measured after 48 hrs by annexin V-FITC/PI staining based flow cytometry analysis (reference value: 91.81%); assay type: functional; conditions: read-out: Activity
A549 [12] = assay: Downregulation of TRPV1 expression level in human A549 cells at 10 to 30 uM by Western blot analysis; assay type: functional, cell-based; conditions: dose 10-30 µM
NCI-H460 [13] = assay: Downregulation of cyclin B1 protein expression in human NCI-H460 cells at 30 uM by Western blot analysis; assay type: functional, cell-based
A549 [14] = assay: Induction of apoptosis in human A549 cells assessed as early apoptotic cells at 30 uM measured after 48 hrs by annexin V-FITC/PI staining based flow cytometry analysis (reference value: 0.59%); assay type: functional
A549 [15] = assay: Downregulation of P38 phosphorylation expression in human A549 cells at 10 to 30 uM by Western blot analysis; assay type: functional, cell-based; conditions: dose 10-30 µM
Lewis lung carcinoma [16] = assay: Antitumor activity against mouse Lewis lung carcinoma cell line xenografted in C57BL/6 mouse model assessed as downregulation of cyclin B1 expression at 10 to 20 mg/kg by Western blot analysis; assay type: functional, organism-based; conditions: dose 10-20 mg/kg
A549 [17] = assay: Induction of apoptosis in human A549 cells assessed as necrotic cells at 30 uM measured after 48 hrs by annexin V-FITC/PI staining based flow cytometry analysis (reference value: 4.03%); assay type: functional
NCI-H460 [18] = assay: Induction of cell cycle arrest in human NCI-H460 cells assessed as accumulation of cells as S phase at 10 uM measured after 24 hrs by propidium iodide staining based flow cytometry analysis (reference value: 7.09%); assay type: functional
Lewis lung carcinoma [19] = assay: Antitumor activity against mouse Lewis lung carcinoma cell line xenografted in C57BL/6 mouse model assessed as decrease in bcl-2 protein expression at 10 to 20 mg/kg by Western blot analysis; assay type: functional, organism-based; conditions: dose 10-20 mg/kg
NCI-H460 [20] = assay: Downregulation of CDK1 protein expression in human NCI-H460 cells at 30 uM by Western blot analysis; assay type: functional, cell-based
BEAS-2B = assay: Cytotoxicity against human BEAS-2B cells assessed as reduction in cell viability at 3 to 300 uM measured after 48 hrs by MTT assay; assay type: toxicity, cell-based; conditions: dose 3-300 µM
NCI-H460 [21] = assay: Upregulation of Bax protein expression in human NCI-H460 cells at 10 uM by Western blot analysis; assay type: functional, cell-based
A549 [22] = assay: Induction of apoptosis in human A549 cells assessed as viable cells at 30 uM measured after 48 hrs by annexin V-FITC/PI staining based flow cytometry analysis (reference value: 80.26%); assay type: functional; conditions: read-out: Activity
NCI-H460 [23] = assay: Induction of cell cycle arrest in human NCI-H460 cells assessed as accumulation of cells as G1 phase at 10 uM measured after 24 hrs by propidium iodide staining based flow cytometry analysis (Rvb =84.54%); assay type: functional
NCI-H460 [24] = assay: Upregulation of Bax/Bcl2 ratio in human NCI-H460 cells at 10 to 30 uM by Western blot analysis; assay type: functional, cell-based; conditions: dose 10-30 µM
NCI-H460 [25] = assay: Induction of apoptosis in human NCI-H460 cells assessed as viable cells at 30 uM measured after 48 hrs by annexin V-FITC/PI staining based flow cytometry analysis (reference value: 91.81%); assay type: functional; conditions: read-out: Activity
A549 [26] = assay: Induction of cell cycle arrest in human A549 cells assessed as accumulation of cells as G1 phase at 30 uM measured after 24 hrs by propidium iodide staining based flow cytometry analysis (reference value: 71.74%); assay type: functional
NCI-H460 [27] = assay: Downregulation of TRPV1 expression level in human NCI-H460 cells at 10 to 30 uM by Western blot analysis; assay type: functional, cell-based; conditions: dose 10-30 µM
NCI-H460 [28] = assay: Induction of apoptosis in human NCI-H460 cells assessed as late apoptotic cells at 30 uM measured after 48 hrs by annexin V-FITC/PI staining based flow cytometry analysis (reference value: 5.41%); assay type: functional
A549 [29] = assay: Induction of cell cycle arrest in human A549 cells assessed as accumulation of cells as S phase at 10 uM measured after 24 hrs by propidium iodide staining based flow cytometry analysis (reference value: 19.57%); assay type: functional
A549 [30] = assay: Inhibition of colony formation in human A549 cells at 10 uM measured after 48 hrs by giemsa staining based analysis relative to control; assay type: functional
NCI-H460 [31] = assay: Downregulation of ERK phosphorylation expression in human NCI-H460 cells at 10 to 30 uM by Western blot analysis; assay type: functional, cell-based; conditions: dose 10-30 µM

CC(C(=O)NCCC[Se]C(F)(F)F)c1ccc(-c2ccccc2)c(F)c1 (configuration not stated)
Activity (A549 [1]): 20.25% | inhibition at 30 µM (A549 [2]): 89% | Activity (A549 [3]): Active | Activity (Lewis lung carcinoma [4]): Active | Activity (A549 [5]): Active | Activity (A549 [6]): Active | Activity (NCI-H460 [7]): Active | Activity (Lewis lung carcinoma [8]): Active | Activity (NCI-H460 [9]): Active | viability at 10 µM (A549 [10]): 74.6% | viability at 10 µM (NCI-H460 [11]): 91% | Activity (A549 [12]): Active | Activity (NCI-H460 [13]): Active | Activity (A549 [14]): 1.13% | Activity (A549 [15]): Active | Activity (Lewis lung carcinoma [16]): Active | Activity (A549 [17]): 8.86% | Activity (NCI-H460 [18]): 10.6% | Activity (Lewis lung carcinoma [19]): Active | Activity (NCI-H460 [20]): Active | Activity (BEAS-2B): Toxic | Activity (NCI-H460 [21]): Active | viability at 30 µM (A549 [22]): 55% | Activity (NCI-H460 [23]): 78.71% | Activity (NCI-H460 [24]): Active | viability at 30 µM (NCI-H460 [25]): 74% | Activity (A549 [26]): 7.45% | Activity (NCI-H460 [27]): Active | Activity (NCI-H460 [28]): 17.28% | Activity (A549 [29]): 13.83% | inhibition at 10 µM (A549 [30]): 45% | Activity (NCI-H460 [31]): Active
